Experimental data reported in the NIST ThermoML archive (doi:10.1007/s10765-010-0768-y).

Test: xn = mol fraction of the nth substance listed
Conditions: 101 kPa, Liquid, Pycnometric method

C=CC(=O)OCCCC [butyl 2-propenoate] + Cc1ccccc1
mass density [kg/m3]
Conditions | 288.15 K | 293.15 K | 298.15 K | 303.15 K | 308.15 K | 313.15 K | 318.15 K
x1 = 0.0704 | 875.4 | 870.63 | 865.86 | 861.09 | 856.32 | 851.55 | 846.79
x1 = 0.1402 | 878.72 | 873.92 | 869.12 | 864.32 | 859.52 | 854.72 | 849.92
x1 = 0.2054 | 881.63 | 876.8 | 871.97 | 867.14 | 862.31 | 857.48 | 852.65
x1 = 0.2799 | 884.72 | 879.86 | 875 | 870.15 | 865.31 | 860.47 | 855.63
x1 = 0.3604 | 887.81 | 882.94 | 878.07 | 873.2 | 868.34 | 863.48 | 858.62
x1 = 0.4338 | 890.4 | 885.52 | 880.64 | 875.77 | 870.9 | 866.03 | 861.16
x1 = 0.5098 | 892.88 | 888 | 883.12 | 878.24 | 873.36 | 868.48 | 863.6
x1 = 0.5836 | 895.08 | 890.19 | 885.31 | 880.43 | 875.55 | 870.67 | 865.79
x1 = 0.6584 | 897.1 | 892.22 | 887.34 | 882.46 | 877.58 | 872.7 | 867.82
x1 = 0.7198 | 898.6 | 893.73 | 888.86 | 883.99 | 879.12 | 874.25 | 869.38
x1 = 0.7912 | 900.18 | 895.32 | 890.46 | 885.6 | 880.75 | 875.9 | 871.05
x1 = 0.8578 | 901.48 | 896.64 | 891.8 | 886.96 | 882.12 | 877.28 | 872.44
x1 = 0.9324 | 902.74 | 897.93 | 893.12 | 888.31 | 883.5 | 878.69 | 873.88
x1 = 1 | 903.6 | 898.85 | 894.1 | 889.35 | 884.6 | 879.85 | 875.1
